The test system of series [1] is Influenza A/NWS/33 (H1N1). In kind it is in vivo, BALB/c mice. Conditions: for Survivors/Total: twice a day for 5 days, observed 21 days.
The conditions of series [2]: mouse, in vivo, 10 mg/kg/day.
Series [3] relates to California/04/2009 (H1N1). The series is described as follows: microbe, parasite or virus in culture. Format: cell-based. Conditions: Influenza A virus, read-out: 50% effective concentration (EC50).
The test system of a further series is NWS/33 (H1N1). Put plainly: microbe, parasite or virus in culture. Format: cell-based. To be noted: Influenza A virus, read-out: 50% effective concentration (EC50).
In the next series the test system is Brisbane/10/2007 (H3N2). The series is described as follows: microbe, parasite or virus in culture. In kind it is cell-based. Conditions: Influenza A virus, read-out: 50% effective concentration (EC50).
A further series deals with Brisbane/59/2007 (H1N1). Put plainly: microbe, parasite or virus in culture. Format: cell-based. Conditions: Influenza A virus, read-out: 50% effective concentration (EC50).
The next series has as its system Victoria/3/75 (H3N2). Put plainly: microbe, parasite or virus in culture. Format: cell-based. To be noted: Influenza A virus, read-out: 50% effective concentration (EC50).
For series [4], the system named is Solomon Islands/03/2006 (H1N1). The series is described as follows: microbe, parasite or virus in culture. Format: cell-based. Conditions: Influenza A virus, read-out: 50% effective concentration (EC50).
The subject of another series is Sichuan/379/99. The series is described as follows: microbe, parasite or virus in culture. Format: cell-based. Conditions: unidentified influenza virus, read-out: 50% effective concentration (EC50).
Series [5] deals with Flu A Duck/MN/1525/81 (H5N1). The series is described as follows: microbe, parasite or virus in culture. Format: cell-based. Conditions: Influenza A virus, H5N1, MDCK, read-out: 50% effective concentration (EC50).
The test system of series [6] is Flu A Vietnam/1203/2004 (H5N1) × A/Ann Arbor/6/60 (H1N1 core genes). The series is described as follows: microbe, parasite or virus in culture. In kind it is cell-based. Conditions: Influenza A virus, MDCK, read-out: 50% effective concentration (EC50).
The test system of a further series is Flu B Florida/4/2006. The series is described as follows: microbe, parasite or virus in culture. Format: cell-based. To be noted: unidentified influenza virus, read-out: 50% effective concentration (EC50).
Another series deals with influenza virus. Conditions: versus oseltamivir carboxylate; cited from earlier work.
The next series in a line: in vivo. To be noted: mouse.
For series [7] the following is noted: cited from earlier work.
For series [8] the following is noted: for Plasma concentration of Zanamivir: iv dose 1 mg/kg.

The structures appear in SMILES notation. Read-outs that look alike come from different tables or passages of the source. Marks after values point to notes of the source that are not given here.

In the case of `CCOC(=O)C1=C[C@@H](OC(CC)CC)[C@H](NC(C)=O)[C@@H](N)C1` [Oseltamivir], in series [1] (0.1 mg/kg/day), the “MDD ± SD (mean day of death of mice that died prior to day 21)” value (shortened to “MDD ± SD”) was determined as 9.7 ± 1.6 and the “protective from the lethal infection” value is recorded as “ineffective”. Moreover, the Survivors/Total in [1] (0.1 mg/kg/day per oral) was 0/10. Besides, in [1] (1 mg/kg/day), the “protective from the lethal infection” value was found to be 100% and the “weight loss during the infection (FIG. 2)” value is “lost minimal weight”. In series [1] (1 mg/kg/day per oral), the Survivors/Total is recorded as 10/10**. Also, in series [1] (10 mg/kg/day), the “protective from the lethal infection” value stood at 100%. For the same compound, the Survivors/Total in series [1] (10 mg/kg/day per oral) is given as 10/10**. The Survivors/Total in series [2] (BALB/c) is 5/5. In addition, in series [2], the “Mean Weight Change Day 5” value is listed as −0.3 grams; the “Mean Weight Change Day 5, % of initial body weight (in parenthesis)” value (shortened to “Mean Weight Change Day 5, %”) is listed as −1.6%; the “Mean Weight Change, day 7” value is −0.1 grams; the “Mean Weight Change, day 7, % of initial body weight (in parenthesis)” value (“Mean Weight Change, day 7, %” for short) is given as −0.5%.

Turning to `CCC(CC)O[C@@H]1C=C(C(=O)O)C[C@H](NC(=N)N)[C@H]1NC(C)=O` [GOC, 4-guanidinio oseltamivir carboxylate], the figures for the “MDD ± SD” value in series [1] (0.1 mg/kg/day) and in [1] (1 mg/kg/day) were 9.0 ± 1.0 and 9.8 ± 1.2, respectively. The “protective from the lethal infection” value in [1] (0.1 mg/kg/day) is “not active”; in [1] (1 mg/kg/day) it was “not active”; in series [1] (10 mg/kg/day), 100%. Moreover, the Survivors/Total in series [1] (0.1 mg/kg/day per oral) is recorded as 0/10; in series [1] (1 mg/kg/day per oral), 1/10; in series [1] (10 mg/kg/day per oral) it was 10/10**. In addition, the “weight loss during the infection (FIG. 2)” value in [1] (10 mg/kg/day) was “Some weight loss”. Moreover, the EC50 was 16 nM in [3] (H1N1, MDCK cells, 3 to 4 days); less than 32 nM with NWS/33 (H1N1) (H1N1, MDCK cells, 3 to 4 days); more than 320 nM with Brisbane/10/2007 (H3N2) (H3N2, MDCK cells, 3 to 4 days); 4 nM in the series on Brisbane/59/2007 (H1N1) (H1N1, MDCK cells, 3 to 4 days); 38 nM in the series on Victoria/3/75 (H3N2) (H3N2, MDCK cells, 3 to 4 days); 4.2 nM in series [4] (H1N1, MDCK cells, 3 to 4 days). The EC50 in the series with Sichuan/379/99 (MDCK cells, 3 to 4 days) was more than 3200 nM; in series [5], 1.2 nM; in series [6], 0.28 nM; with Flu B Florida/4/2006 (MDCK cells, 3 to 4 days) it was 460 nM. In addition, the AUC (mouse, in vivo, po, 10 mg/kg) was 327 ± 98 ng·h/mL; the AUC in the series “in vivo” (iv, 1 mg/kg, mice, GOC in plasma) turned out to be 541 ± 229 ng·h/mL; the AUC in the series “in vivo” (po, 10 mg/kg) was determined as 232 ± 43 ng·h/mL. This compound yielded a Cmax (mouse, in vivo, po, 10 mg/kg) of 73 ± 30 ng/mL and a Cmax in “in vivo” (po, 10 mg/kg, Cmax) of 43 ± 29 ng/mL. The compound also came in with a T1/2 (mouse, in vivo, po, 10 mg/kg) of 1.65 h. The “Mean Weight Change Day 5” value in series [2] is recorded as −0.3 grams. The “Mean Weight Change Day 5, %” value in series [2] is −2.1%. Besides, in series [2], the “Mean Weight Change, day 7” value is listed as −0.2 grams. Moreover, the “Mean Weight Change, day 7, %” value in [2] is given as −1.0%. The “times more potent in tissue culture of influenza virus replication” value in the series with influenza virus is given as 10 times. The compound further had a bioavailability in the series “in vivo” (10 mg/kg, BA (bioavailability of GOC)) of 4.3%. The compound further had a Vd in the series “in vivo” (iv, 1 mg/kg) of 0.0678 L. In the series “in vivo” (iv, 1 mg/kg), this compound showed a clearance of 0.883 mL/min. Also, the half-life in “in vivo” (iv, 1 mg/kg, T1/2, mice) is 0.88 h; in “in vivo” (po, 10 mg/kg, T1/2) it was 1.21 h. In addition, the Tmax in the series “in vivo” (po, 10 mg/kg) was determined as 3 ± 1.2 h; in the series “in vivo” (po, 10 mg/kg, mice, PO (fasted), GOC in plasma), 1.3 ± 1 h. The oral bioavailability in series [7] (oral) is listed as approximately 4.0%.

For `CC(=O)N[C@H]1[C@H]([C@H](O)[C@H](O)CO)OC(C(=O)OC(OC(=O)[C@H](N)C(C)C)C(C)C)=C[C@@H]1NC(=N)N` (stereo partly drawn) [ZAN-Isp-Val], the AUC in series [8] (Oral, fasted mice, Zanamivir in plasma) is recorded as 2177 (ng/ml) × hr. For the same compound, in [8] (fasted animals), the “absorption after oral dosing” value was “completely absorbed”.

For the setting “mouse, in vivo, iv, 1 mg/kg”, `CCC(CC)OC1C=C(C(=O)OC(OC(=O)C(N)C(C)C)c2ccccc2)CC(NC(=N)N)C1NC(C)=O` (mixture of isomers) [GOC-Benzyl-Val] had an AUC of 867 ± 110 ng·h/mL, a CL of 31 mL/h, a T1/2 of 1.15 h and a Vz of 50.8 mL. Besides, under “mouse, in vivo, po, 10 mg/kg”, the AUC is 1171 ± 357 ng·h/mL, the CL was determined as 195 mL/h, the Cmax amounted to 192 ± 48 ng/mL and the T1/2 amounted to 7.14 h. Where the note is “mouse, in vivo, po, 10 mg/kg”, the Tmax was found to be 1.0 ± 0.0 h and the Vz stood at 2014 mL.

Consider `CCOC(=O)C1=C[C@@H](OC(CC)CC)[C@H](NC(C)=O)[C@@H](NC(=N)N)C1`, for which the oral bioavailability result in [7] (oral) is recorded as “approximately 2%”.

With `CCC(CC)O[C@@H]1C=C(C(=O)O)C[C@H](N)[C@H]1NC(C)=O` [Oseltamivir Carboxylate, Oseltamivir carboxylate], the EC50 in [3] (H1N1, MDCK) is 300 nM; in the series with NWS/33 (H1N1) (H1N1, MDCK), 580 nM; with Brisbane/10/2007 (H3N2) (H3N2, MDCK), more than 320 nM; in the series on Brisbane/59/2007 (H1N1) (H1N1, MDCK), more than 320 nM; in the series with Victoria/3/75 (H3N2) (H3N2, MDCK), more than 320 nM; in series [4] (H1N1, MDCK), more than 320 nM. The EC50 is more than 3200 nM in the series with Sichuan/379/99 (MDCK), 150 nM in [5], 2.8 nM in series [6] and more than 3200 nM in the series with Flu B Florida/4/2006 (MDCK). The oral bioavailability in series [7] (oral) is listed as approximately 4.0%.

For `CC(=O)N[C@H]1[C@H]([C@H](O)[C@H](O)CO)OC(C(=O)O)=C[C@@H]1N=C(N)N` [Zanamivir], the “Plasma concentration of Zanamivir” value amounted to 4018.3 ng/mL in [8] (0.03 hours); 2487.5 ng/mL in [8] (0.08 hours); 633.8 ng/mL in series [8] (0.25 hours); 212.0 ng/mL in series [8] (0.50 hours); 78.6 ng/mL in series [8] (1.00 hours); 14.0 ng/mL in [8] (2.00 hours). In addition, the AUC in series [8] (mouse, in vivo, iv, 1 mg/kg) is 202.4 (ng/ml) × hr. Further, the oral bioavailability result in [7] (in vivo, po) was “about 2%”.

Take `CCC(CC)OC1C=C(C(=O)OC(C)OC(=O)C(N)C(C)C)CC(NC(=N)N)C1NC(C)=O` (mixture of isomers) [GOC-Me-Val]: in series [1] (0.1 mg/kg/day), the “MDD ± SD” value came to 10.0 ± 1.3 and the “protective from the lethal infection” value is “inactive”. In addition, the Survivors/Total in [1] (0.1 mg/kg/day per oral) was 0/10. Further, in series [1] (1 mg/kg/day), the “MDD ± SD” value was 10.7 ± 0.6, the “protective from the lethal infection” value came to 70% and the “weight loss during the infection (FIG. 2)” value is recorded as “Severe weight loss”. The Survivors/Total in series [1] (1 mg/kg/day per oral) is listed as 7/10**. For the same compound, in series [1] (10 mg/kg/day), the “protective from the lethal infection” value is 100%. Further, in series [1] (10 mg/kg/day per oral), the Survivors/Total is 10/10**. For the same compound, the T1/2 (mice, IV, 1 mg/kg) came to 1.05 h. Under “mouse, in vivo, iv, 1 mg/kg”, this compound had an AUC of 730 ± 60 ng·h/mL, a CL of 39 mL/h and a Vz of 59.5 mL. Where the note is “mouse, in vivo, po, 10 mg/kg”, this compound yielded an AUC of 3205 ± 577 ng·h/mL, a CL of 140 mL/h, a Cmax of 561 ± 235 ng/mL and a Vz of 276 mL. Further, in series [2], the “Mean Weight Change Day 5” value is listed as −0.2 grams; the “Mean Weight Change Day 5, %” value is −0.5%; the “Mean Weight Change, day 7” value is reported as −0.3 grams; the “Mean Weight Change, day 7, %” value is −1.6%. Moreover, the Survivors/Total in series [2] is listed as 5/5.

Usually Cmax stands for the maximum level reached in the sampled fluid or tissue. The term bioavailability denotes dose-corrected exposure relative to a reference, in per cent. Higher therefore signals good availability. For orientation: Vd means the apparent volume that relates the amount in the body to the concentration in plasma or blood. In general, clearance refers to the rate of elimination divided by the concentration. High values mean efficient removal, low ones inefficient removal. A word on the half-life: it is the time needed for the level to fall by half in the phase considered. A higher half-life goes with slow decline. By Tmax is commonly meant the time from dosing to the highest level.

Source of the values: patent US20130023585A1, “Neuraminidase Inhibitors” (TSRL, INC., priority 2010, published 2013).
